Data as given in PMC5444710, “Enhancement of radiosensitivity by the novel anticancer quinolone derivative vosaroxin in preclinical glioblastoma models” (Oncotarget, 2017).

Columns and labels:
A172 cells = assay: Clonogenic survival assay; type: cell-based, human
Protocol: (§1) For clonogenic survival assays, exponentially growing cells (70% confluence) were cultured in regular media and treated with vosaroxin, at the appropriate concentrations, or vehicle (final dimethyl sulfoxide concentration of 0.1%) for 48 hours. Tumor cells were then irradiated at room temperature with increasing doses of radiation (0–6 Gy) using an x-ray linear accelerator (dose rate of 200 cGy/min). Nonirradiated controls were handled identically to the irradiated cells with the exception of the radiation exposure. […] […] Colonies containing more than 50 cells were counted. The plating efficiency was calculated as the number of colonies observed divided by the number of cells plated. The surviving fraction was calculated as the number of colonies formed in the treated dishes compared with the number formed in the control. The survival curves were analyzed using SPSS statistical software (Chicago, IL, USA) by means of a fit of the data by a weighted, stratified, linear regression, according to the linear-quadratic formula: S(D)/S(O) = exp-(αD + βD2). The cell survival enhancement ratio was calculated as the ratio of the mean inactivation dose under control conditions divided by the mean inactivation dose after treatment as previously described.

T98G cells = assay: Clonogenic survival assay; type: cell-based, human
Protocol: as §1

U251 cells = assay: Clonogenic survival assay; type: cell-based, human
Protocol: as §1

U87MG cells = assay: Clonogenic survival assay; type: cell-based, human
Protocol: as §1

T98G xenografts = assay: Cytokine expression in xenograft tissue extracts (ELISA); type: in vivo, female CD1-nu/nu mice; details: T98G xenograft tissue extract
Protocol: (§2) After appropriate treatments, tumor cell cultures and tissues were harvested for analysis of cytokine expression. Cell pellets were washed with PBS and lysed with RIPA buffer. Cell lysates and conditioned media were assayed by ELISA to measure (i) active human caspase-3 (CBA045, Merck Chemicals Ltd., Nottingham, UK), (ii) beclin-1 (E98557Hu, USCN Life Sciences, Houston, TX, USA), and (iii) DNA damage (EpiQuik in situ DNA Damage Assay Kit, Epigentek, Farmingdale, NY, USA). Tumor extracts were analyzed for the presence of:
(§3) • MMP-2 (KHC3081) • TNF-α (KHC3011, Life Technologies Italia, Monza, Italy) • CXCR4 (Cyto Glow CXCR4 [pSer339], cell-based ELISA, Assay Biotech, Sunnyvale, CA, USA) • Human Fas ligand (ELH-FASL, RayBiotech, Norcross, GA, USA) • IL-6 (orb50052) and survivin (orb50135) (Biorbyt) • TGF-β1 (Quantikine ELISA Kit, DB100B, R&D Systems, Minneapolis, MN, USA) • SDF-1α (Human CXCL12/SDF-1α Quantikine ELISA Kit, DSA00, R&D Systems) • Mouse IL-10 DuoSet ELISA DY417 (R&D Systems Minneapolis, MN, USA) • Mouse NOS2 / iNOS ELISA Kit (Sandwich ELISA) - LS-F12166 (LifeSpan Biosciences, Inc, Seattle, WA, USA) • Mouse ARG1 / Arginase-1 ELISA Kit (Sandwich ELISA) - LS-F10883 (LifeSpan Biosciences, Inc, Seattle, WA, USA)
(§4) All determinations were performed in triplicate, according to manufacturers’ instructions. Data are presented as mean ± SE. Cytokine secretion determined by ELISA was normalized to total protein concentration in tissue lysates.

U251 xenografts = assay: as above; type: in vivo, female CD1-nu/nu mice; details: U251 xenograft tissue extract
Protocol: as §2, §3, §4

U87MG xenografts = assay: as above; type: in vivo, female CD1-nu/nu mice; details: U87MG xenograft tissue extract
Protocol: as §2, §3, §4

[1] = concentration equal to IC20, analyzed at 21 days of culture
[2] = irradiated 2, 4, 6 Gy 48 hours after drug exposure, calculated at a surviving fraction of 0.10

CN[C@H]1CN(c2ccc3c(=O)c(C(=O)O)cn(-c4nccs4)c3n2)C[C@@H]1OC [vosaroxin]
surviving fraction, vosaroxin alone (A172 cells; [1]): 0.87 ± 0.18 | dose enhancement factor (A172 cells; [2]): 1.24 | surviving fraction, vosaroxin alone (T98G cells; [1]): 0.84 ± 0.036 | dose enhancement factor (T98G cells; [2]): 1.40 | surviving fraction, vosaroxin alone (U251 cells; [1]): 0.80 ± 0.064 | dose enhancement factor (U251 cells; [2]): 1.33 | surviving fraction, vosaroxin alone (U87MG cells; [1]): 0.77 ± 0.18 | dose enhancement factor (U87MG cells; [2]): 1.55 | Human IL-6 (T98G xenografts): 30 ± 3 pg/mg tissue | Human TGF-β1 (T98G xenografts): 27 ± 3 | Human TNF-α (T98G xenografts): 3 ± 1 pg/mg tissue | Human and mouse IL-8 (T98G xenografts): 440 ± 30 pg/mg tissue | Mouse IL-1β (T98G xenografts): 27 ± 4 pg/mg tissue | Mouse IL-10 (T98G xenografts): < 1.0 | Mouse SDF-1α (T98G xenografts): 12 ± 4 | Human IL-6 (U251 xenografts): 33 ± 8 pg/mg tissue | Human TGF-β1 (U251 xenografts): 35 ± 6 | Human TNF-α (U251 xenografts): 7 ± 1 pg/mg tissue | Human and mouse IL-8 (U251 xenografts): 275 ± 35 pg/mg tissue | Mouse IL-1β (U251 xenografts): 44 ± 5 pg/mg tissue | Mouse IL-10 (U251 xenografts): 5.2 ± 0.6 | Mouse SDF-1α (U251 xenografts): 32 ± 3 | Human IL-6 (U87MG xenografts): 78 ± 13 pg/mg tissue | Human TGF-β1 (U87MG xenografts): 47 ± 8 | Human TNF-α (U87MG xenografts): 17 ± 3 pg/mg tissue | Human and mouse IL-8 (U87MG xenografts): 715 ± 37 pg/mg tissue | Mouse IL-1β (U87MG xenografts): 85 ± 10 pg/mg tissue | Mouse IL-10 (U87MG xenografts): 6.2 ± 0.5 | Mouse SDF-1α (U87MG xenografts): 18 ± 3
